From PMC10303012, “Volatile Short-Chain Aliphatic Aldehydes Act as Taste Modulators through the Orally Expressed Calcium-Sensing Receptor CaSR” (Molecules, 2023) come the findings set out here.

Common to all, as to assay type: cell-based
For assay [1], the target named is T1, calcium-sensing receptor CaSR (Homo sapiens, UniProt P41180).
T1 sequence (P41180 20-1078): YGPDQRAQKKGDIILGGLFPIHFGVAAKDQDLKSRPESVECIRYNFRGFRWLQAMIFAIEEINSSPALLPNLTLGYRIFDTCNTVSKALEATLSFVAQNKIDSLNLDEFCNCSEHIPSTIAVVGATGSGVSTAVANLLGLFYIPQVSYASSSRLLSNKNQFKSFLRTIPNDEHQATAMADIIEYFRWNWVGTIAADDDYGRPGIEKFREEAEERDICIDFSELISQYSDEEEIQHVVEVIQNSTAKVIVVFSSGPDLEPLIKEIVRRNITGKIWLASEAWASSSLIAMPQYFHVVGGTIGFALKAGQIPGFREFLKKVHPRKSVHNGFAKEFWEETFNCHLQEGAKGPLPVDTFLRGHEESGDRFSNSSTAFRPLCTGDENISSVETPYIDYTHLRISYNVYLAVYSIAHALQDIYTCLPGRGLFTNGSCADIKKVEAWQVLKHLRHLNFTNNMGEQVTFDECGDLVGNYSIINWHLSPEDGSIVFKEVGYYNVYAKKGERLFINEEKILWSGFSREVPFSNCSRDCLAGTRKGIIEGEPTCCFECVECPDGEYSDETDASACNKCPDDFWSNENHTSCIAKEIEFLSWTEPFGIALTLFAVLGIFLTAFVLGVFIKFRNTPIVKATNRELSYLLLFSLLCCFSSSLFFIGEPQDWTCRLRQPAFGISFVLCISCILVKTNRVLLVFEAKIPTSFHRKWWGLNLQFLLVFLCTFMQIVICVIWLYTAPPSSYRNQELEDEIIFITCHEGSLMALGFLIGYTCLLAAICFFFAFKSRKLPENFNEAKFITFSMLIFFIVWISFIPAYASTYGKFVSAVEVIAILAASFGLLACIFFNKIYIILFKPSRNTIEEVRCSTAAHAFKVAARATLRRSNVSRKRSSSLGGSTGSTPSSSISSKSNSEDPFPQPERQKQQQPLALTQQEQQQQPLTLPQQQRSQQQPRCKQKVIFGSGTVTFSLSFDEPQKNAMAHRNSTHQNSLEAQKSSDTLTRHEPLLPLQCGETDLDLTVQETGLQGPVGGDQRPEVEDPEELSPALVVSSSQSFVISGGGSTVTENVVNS
Description: calcium mobilization assay in PEAKrapid cells transiently expressing human CaSR, with mock control. In general terms: Calcium flux is commonly read through the fluorescence of an indicator in the cells.

Assay [2] has as its target T1, calcium-sensing receptor CaSR. As to the kind of experiment: calcium mobilization assay in PEAKrapid cells transiently expressing human CaSR; potentiation of CaCl2 response at […].
Assay [3] has the same target. Description: calcium mobilization assay in PEAKrapid cells transiently expressing human CaSR, with mock control. The source holds these as a separate data set.

pEC50: −log10 of the molar value.

For the molecule `CCCCC=O` [pentanal], the “calcium mobilization assay in PEAKrapid cells transiently expressing human CaSR,” value (“calcium mobilization assay” below) in assay [1] is 2-methylbutylaldehyde (D,I), pentanal (E,I), hexanal (F,I).

In the case of `CC(C)C=O` [isobutylaldehyde], the “calcium mobilization assay” value in assay [1] is on record as “CaSR was activated by propionaldehyde (A,I), butanal (B,I), isobutylaldehyde (C,I)”.

Turning to `CSCCC=O` [MTN, methional], in assay [2], the “calcium mobilization assay” value is on record as “only methional activated CaSR, while neither of the methional analogues tested activated CaSR”.

Take `CCC=O` [propionaldehyde]: in assay [1], the “calcium mobilization assay” value is “CaSR was activated by propionaldehyde (A,I)”.

For the molecule `CCCCCC=O` [hexanal], the “calcium mobilization assay” value in assay [1] was 2-methylbutylaldehyde (D,I), pentanal (E,I), hexanal (F,I).

`CCC(C)C=O` (centres unmarked) [2-methylbutylaldehyde]: the “calcium mobilization assay” value in assay [1] is “CaSR was activated by propionaldehyde (A,I), butanal (B,I), isobutylaldehyde (C,I), 2-methylbutylaldehyde (D,I)”.

The pEC50 is −log10 of the EC50, conventionally taken in molar units. Take `CC(C)CC=O` [IVAH, isovaleraldehyde]: the pEC50 in assay [3] is 3.17.

For `CCCC=O` [butanal], the “calcium mobilization assay” value in assay [1] is “CaSR was activated by propionaldehyde (A,I), butanal (B,I)”.
